The NIST ThermoML archive (doi:10.1021/je0601457)

Assay: xn = mol fraction of the nth substance listed
Conditions: linear displacement

CC(=O)c1cnccn1 [2-acetylpyrazine] + O=C=O
Conditions | mass density [kg/m3]
294.75 K, Liquid, x1 = 0.007 | 799
296.15 K, Liquid, x1 = 0.025 | 758
302.35 K, Liquid, x1 = 0.025 | 790
302.35 K, Liquid, x1 = 0.054 | 922
303.35 K, Liquid, x1 = 0.007 | 724
306.25 K, Liquid, x1 = 0.081 | 946
309.45 K, Liquid, x1 = 0.138 | 1276
310.35 K, Liquid, x1 = 0.054 | 837
311.05 K, Liquid, x1 = 0.161 | 938
312.75 K, Gas, x1 = 0.007 | 601
312.95 K, Liquid, x1 = 0.114 | 1092
313.15 K, Liquid, x1 = 0.194 | 954
313.65 K, Gas, x1 = 0.081 | 911
314.35 K, Liquid, x1 = 0.138 | 1258
314.45 K, Gas, x1 = 0.025 | 815
321.25 K, Gas, x1 = 0.054 | 785
321.45 K, Liquid, x1 = 0.161 | 918
321.95 K, Liquid, x1 = 0.194 | 939
322.05 K, Liquid, x1 = 0.295 | 1090
322.25 K, Liquid, x1 = 0.138 | 1238
323.05 K, Liquid, x1 = 0.114 | 1061
332.55 K, Liquid, x1 = 0.448 | 1063
332.75 K, Liquid, x1 = 0.138 | 1216
332.85 K, Gas, x1 = 0.054 | 739
333.45 K, Liquid, x1 = 0.194 | 920
333.45 K, Liquid, x1 = 0.295 | 1014
334.45 K, Gas, x1 = 0.081 | 856
334.95 K, Liquid, x1 = 0.114 | 1023
337.95 K, Liquid, x1 = 0.161 | 887
340.45 K, Gas, x1 = 0.025 | 718
343.75 K, Liquid, x1 = 0.295 | 998
345.75 K, Liquid, x1 = 0.138 | 1187
346.35 K, Liquid, x1 = 0.944 | 1013
348.05 K, Liquid, x1 = 0.448 | 1037
348.55 K, Liquid, x1 = 0.114 | 993
348.75 K, Gas, x1 = 0.054 | 702
351.15 K, Liquid, x1 = 0.194 | 892
353.55 K, Gas, x1 = 0.081 | 807
353.75 K, Liquid, x1 = 0.161 | 863
356.05 K, Liquid, x1 = 0.295 | 979
360.95 K, Liquid, x1 = 0.944 | 996
363.05 K, Liquid, x1 = 0.138 | 1148
364.85 K, Liquid, x1 = 0.114 | 945
366.25 K, Liquid, x1 = 0.448 | 1007
367.85 K, Liquid, x1 = 0.194 | 861
368.75 K, Liquid, x1 = 0.295 | 956
368.85 K, Gas, x1 = 0.025 | 628
369.55 K, Gas, x1 = 0.081 | 772
370.85 K, Liquid, x1 = 0.161 | 832
371.05 K, Liquid, x1 = 0.944 | 992
371.25 K, Gas, x1 = 0.054 | 648
